Source: article PMC6934184, “Selective DNA-PKcs inhibition extends the therapeutic index of localized radiotherapy and chemotherapy” (The Journal of Clinical Investigation, 2019)

Biological target: T1, PRKACA (PKA) (Homo sapiens, UniProt P17612)
T1 construct: purchased Thermo Fisher Scientific (Life Technologies) SelectScreen
Test: SelectScreen Z'LYTE
Type: biochemical
How it was run: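 SelectScreen broad panel; activity (Z'LYTE, Adapta) plus binding formats. ATP: Km app for CSF1R Z'LYTE; 10 for CAMK1 Adapta. Readout = % per kinase.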

Work on CN(C(=O)CN1CCOCC1)c1ccc2sc3c(-c4cccc5c(=O)cc(N6CC7CCC(C6)O7)oc45)cccc3c2c1 [NU5455] yielded an inhibition at 1 µM of 14%.
